Measurements reported in publication PMC10224329, “Design, Synthesis, and Antiproliferative Activity of Benzopyran-4-One-Isoxazole Hybrid Compounds” (Molecules, 2023).

Assays:
c-Src = target: T1, c-Src (Homo sapiens, UniProt P12931); assay: Protein kinase assay (Reaction Biology); assay type: biochemical; conditions: duplicate, 200 μM ATP, read-out: % Enzyme Activity (Relative to DMSO Controls) c-Src
T1 construct: purchased Reaction Biology Corporation
Procedure: (§1) Therefore, selected compound 5a was screened against several protein kinases to explore the potential of these hybrid compounds as kinase inhibitors. The screening of compound 5a was performed on a panel of 9 kinases, viz., ABL1, c-Kit, c-Src, CDK2/cyclin A1, CSK, EGFR, mTOR/FRAP1, p38a/MAPK14, PKCa, and PI3K, at a dose of 20 μM. The respective positive controls were used for each kinase, and the kinase reaction was performed at 200 μM ATP concentration for all the kinases except for PI3K, which was performed at 10 µM ATP (Table 2). […] It appeared that compound 5a containing a 3-position substitution with an isoxazole ring and a 4-position with a carbonyl group has a detrimental effect on kinase inhibition. Previously 3-substituted benzopyran compound with a short alkyl chain of urea (NH-CO-NH-Et/Me/iPr) was reported with Abl kinase inhibitory activity in the range of 4–27 μM [36]. […] Due to prominent antiproliferative activity, these compounds may have some other targets for anticancer activity.
(§2) Compound 5a was tested at a single dose of 20 μM against 9 kinases, viz., Abl1, c-Kit, c-Src, CDK2/cyclin A1, CSK, EGFR, mTOR/FRAP1, p38a/MAPK14, PKCa, and PI3K using our previously reported protocol in duplicate by Reaction Biology Corporation. The respective positive controls, e.g., staurosporine for all the kinases, except SB202190 for P38a/MAP14 and P1-103 for mTOR/FRAP1, were used, and the kinase reaction was performed at 200 μM ATP concentration for all the kinases except for PI3K, which was performed at 10 µM ATP.

PKCa = target: T2, PKCa (Homo sapiens, UniProt P17252); assay: Protein kinase assay (Reaction Biology); assay type: biochemical; conditions: duplicate, 200 μM ATP, read-out: % Enzyme Activity (Relative to DMSO Controls) PKCa
T2 construct: purchased Reaction Biology Corporation
Procedure: as §1, §2

mTOR/FRAP1 = target: T3, mTOR/FRAP1 (Homo sapiens, UniProt P42345); assay: Protein kinase assay (Reaction Biology); assay type: biochemical; conditions: duplicate, 200 μM ATP, read-out: % Enzyme Activity (Relative to DMSO Controls) mTOR/FRAP1
T3 construct: purchased Reaction Biology Corporation
Procedure: as §1, §2

PI3K (p110a/p65a) = target: T4, PI3K (p110a/p65a) (Homo sapiens, UniProt P42336); assay: Protein kinase assay (Reaction Biology); assay type: biochemical; conditions: duplicate, 10 µM ATP, read-out: % Enzyme Activity (Relative to DMSO Controls) PI3K (p110a/p65a)
T4 construct: purchased Reaction Biology Corporation
T4 sequence (P42336 whole entry): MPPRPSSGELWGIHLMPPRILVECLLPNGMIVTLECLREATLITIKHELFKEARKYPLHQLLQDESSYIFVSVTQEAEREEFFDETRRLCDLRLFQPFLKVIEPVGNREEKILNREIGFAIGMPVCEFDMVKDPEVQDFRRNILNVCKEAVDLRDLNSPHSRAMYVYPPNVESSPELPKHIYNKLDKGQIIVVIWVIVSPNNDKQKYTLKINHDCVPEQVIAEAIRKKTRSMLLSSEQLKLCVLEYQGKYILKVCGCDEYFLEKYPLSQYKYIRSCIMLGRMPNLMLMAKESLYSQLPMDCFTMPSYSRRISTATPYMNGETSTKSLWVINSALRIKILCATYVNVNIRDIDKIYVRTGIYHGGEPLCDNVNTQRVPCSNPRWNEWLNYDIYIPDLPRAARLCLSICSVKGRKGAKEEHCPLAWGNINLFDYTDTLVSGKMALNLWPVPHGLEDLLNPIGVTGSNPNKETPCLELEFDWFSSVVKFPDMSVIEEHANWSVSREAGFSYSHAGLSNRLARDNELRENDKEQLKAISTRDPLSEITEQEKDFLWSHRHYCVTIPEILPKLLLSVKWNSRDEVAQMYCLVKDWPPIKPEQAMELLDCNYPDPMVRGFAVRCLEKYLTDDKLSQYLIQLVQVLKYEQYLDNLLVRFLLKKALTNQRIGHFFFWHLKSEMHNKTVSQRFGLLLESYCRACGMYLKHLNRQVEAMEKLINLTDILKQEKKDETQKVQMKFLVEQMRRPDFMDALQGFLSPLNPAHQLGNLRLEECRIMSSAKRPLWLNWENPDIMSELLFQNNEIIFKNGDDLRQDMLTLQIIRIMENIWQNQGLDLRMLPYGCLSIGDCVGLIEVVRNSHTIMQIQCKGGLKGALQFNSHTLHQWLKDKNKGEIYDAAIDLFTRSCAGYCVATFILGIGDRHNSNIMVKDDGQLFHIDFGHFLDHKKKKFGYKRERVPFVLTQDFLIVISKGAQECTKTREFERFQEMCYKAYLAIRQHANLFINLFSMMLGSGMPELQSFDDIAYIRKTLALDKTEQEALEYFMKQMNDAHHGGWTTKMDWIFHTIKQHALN
Procedure: as §1, §2

ABL1 = target: T5, ABL1 (Homo sapiens, UniProt P00519); assay: Protein kinase assay (Reaction Biology); assay type: biochemical; conditions: duplicate, 200 μM ATP, read-out: % Enzyme Activity (Relative to DMSO Controls) ABL1
T5 construct: purchased Reaction Biology Corporation
T5 sequence (P00519 whole entry): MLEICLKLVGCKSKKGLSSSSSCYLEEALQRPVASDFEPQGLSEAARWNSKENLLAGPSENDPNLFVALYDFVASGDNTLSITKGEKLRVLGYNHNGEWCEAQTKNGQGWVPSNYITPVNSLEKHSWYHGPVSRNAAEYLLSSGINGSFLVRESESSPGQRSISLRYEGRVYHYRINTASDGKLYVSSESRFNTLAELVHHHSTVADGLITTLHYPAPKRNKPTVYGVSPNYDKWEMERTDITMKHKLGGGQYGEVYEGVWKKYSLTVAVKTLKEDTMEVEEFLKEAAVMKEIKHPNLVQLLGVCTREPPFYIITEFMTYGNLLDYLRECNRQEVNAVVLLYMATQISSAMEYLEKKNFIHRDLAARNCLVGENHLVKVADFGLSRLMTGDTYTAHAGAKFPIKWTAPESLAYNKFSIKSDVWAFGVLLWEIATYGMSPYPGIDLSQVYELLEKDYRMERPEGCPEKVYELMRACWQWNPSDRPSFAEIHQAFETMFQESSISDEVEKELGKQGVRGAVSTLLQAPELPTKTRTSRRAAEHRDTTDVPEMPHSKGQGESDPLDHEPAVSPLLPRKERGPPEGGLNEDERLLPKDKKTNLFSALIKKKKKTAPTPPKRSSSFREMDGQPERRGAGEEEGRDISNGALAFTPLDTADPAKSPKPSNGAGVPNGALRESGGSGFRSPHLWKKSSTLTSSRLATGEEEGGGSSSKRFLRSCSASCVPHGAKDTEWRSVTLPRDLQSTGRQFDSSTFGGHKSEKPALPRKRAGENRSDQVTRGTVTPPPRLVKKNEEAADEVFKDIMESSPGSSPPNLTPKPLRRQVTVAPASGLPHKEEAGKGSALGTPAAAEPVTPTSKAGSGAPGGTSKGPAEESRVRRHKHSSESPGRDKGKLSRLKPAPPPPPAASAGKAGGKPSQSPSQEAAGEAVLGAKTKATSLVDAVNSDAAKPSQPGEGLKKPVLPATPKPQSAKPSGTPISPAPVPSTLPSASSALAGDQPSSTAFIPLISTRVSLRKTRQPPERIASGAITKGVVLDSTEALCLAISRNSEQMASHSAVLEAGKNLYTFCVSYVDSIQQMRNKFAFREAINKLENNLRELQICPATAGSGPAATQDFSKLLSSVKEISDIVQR
Procedure: as §1, §2

c-Kit = target: T6, c-Kit (Homo sapiens, UniProt P10721); assay: Protein kinase assay (Reaction Biology); assay type: biochemical; conditions: duplicate, 200 μM ATP, read-out: % Enzyme Activity (Relative to DMSO Controls) c-Kit
T6 construct: purchased Reaction Biology Corporation
T6 sequence (P10721 26-976): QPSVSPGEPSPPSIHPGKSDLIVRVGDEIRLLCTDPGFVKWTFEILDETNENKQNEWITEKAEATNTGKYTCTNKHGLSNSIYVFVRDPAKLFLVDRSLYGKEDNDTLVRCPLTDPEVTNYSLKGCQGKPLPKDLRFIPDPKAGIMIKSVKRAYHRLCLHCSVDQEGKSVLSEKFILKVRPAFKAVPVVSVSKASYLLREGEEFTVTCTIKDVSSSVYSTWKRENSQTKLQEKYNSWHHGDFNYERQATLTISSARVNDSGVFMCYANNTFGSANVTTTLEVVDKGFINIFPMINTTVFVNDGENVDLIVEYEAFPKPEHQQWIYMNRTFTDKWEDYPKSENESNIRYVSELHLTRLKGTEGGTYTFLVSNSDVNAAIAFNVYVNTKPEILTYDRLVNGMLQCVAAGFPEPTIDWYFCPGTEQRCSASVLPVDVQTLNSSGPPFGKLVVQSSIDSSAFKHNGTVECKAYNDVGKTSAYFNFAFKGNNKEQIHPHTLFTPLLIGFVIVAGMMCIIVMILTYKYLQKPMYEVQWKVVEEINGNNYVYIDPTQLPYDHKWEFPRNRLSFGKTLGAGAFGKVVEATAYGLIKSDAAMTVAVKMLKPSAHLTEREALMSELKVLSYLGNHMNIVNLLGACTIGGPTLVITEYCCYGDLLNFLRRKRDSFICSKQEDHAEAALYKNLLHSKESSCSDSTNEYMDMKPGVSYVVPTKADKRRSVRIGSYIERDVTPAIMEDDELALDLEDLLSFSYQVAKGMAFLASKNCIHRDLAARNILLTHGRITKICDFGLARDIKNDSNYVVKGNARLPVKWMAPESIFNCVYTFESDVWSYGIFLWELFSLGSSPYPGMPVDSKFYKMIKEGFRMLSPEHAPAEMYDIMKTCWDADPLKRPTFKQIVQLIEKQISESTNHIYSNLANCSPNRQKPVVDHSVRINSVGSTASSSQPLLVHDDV
Procedure: as §1, §2

CSK = target: T7, CSK (Homo sapiens, UniProt P41240); assay: Protein kinase assay (Reaction Biology); assay type: biochemical; conditions: duplicate, 200 μM ATP, read-out: % Enzyme Activity (Relative to DMSO Controls) CSK
T7 construct: purchased Reaction Biology Corporation
Procedure: as §1, §2

CDK2/cyclin A1 = target: T8, CDK2/cyclin A1 (Homo sapiens, UniProt P24941); assay: Protein kinase assay (Reaction Biology); assay type: biochemical; conditions: duplicate, 200 μM ATP, read-out: % Enzyme Activity (Relative to DMSO Controls) CDK2/cyclin A1
T8 construct: purchased Reaction Biology Corporation
Procedure: as §1, §2

[1] = test system: androgen-independent human prostate cancer (DU-145) cell lines; assay: MTS cell viability assay; assay type: cell-based
Procedure: All the 14 hybrid compounds synthesized via Scheme 1, along with the intermediates and starting compounds, were tested in vitro for their cytotoxicity against a panel of 6 human cancer cell lines. This panel involved human leukemia carcinoma (CCRF-CEM), human ovarian adenocarcinoma (SKOV-3), human breast tumor (MDA-MB-231), human prostate cancer (PC-3), androgen-independent human prostate cancer (DU-145), and human renal carcinoma (iSLK) cell lines. The compounds were tested at a concentration of 25 μM for incubation periods of 24 and 72 h. Standard anticancer drug doxorubicin at a concentration of 5 μM and DMSO were used as controls in all the cell assays. The antiproliferative profile of benzopyran-4-one-isoxazole conjugates is shown in Figure 2 (cf. Supplementary Materials for the data obtained for intermediates and starting materials Figure S28.1–S28.6, page no. 71–76).
Cell viability assays were performed using the MTS protocol. The in vitro cytotoxicity of the conjugates was evaluated using six human cancer cell lines, one human normal kidney cell line, and one mammalian normal kidney cell line, which included human leukemia carcinoma cell lines (CCRF-CEM), human ovarian adenocarcinoma cell lines (SKOV-3), human breast tumor cell lines (MDA-MB-231), human prostate cancer cell lines (PC-3), androgen-independent human prostate cancer cell lines (DU-145), human renal carcinoma (iSLK), human embryonic kidney cell lines (HEK-293), and normal mammalian kidney cell line (LLCPK) to determine the toxicity of the synthesized conjugates. CCRF-CEM cells were seeded at 50,000 cells in 0.1 mL per well in 96-well plates, and in the case of SKOV-3, MDA-MB-231, PC-3, DU-145, HEK-293, and LLCPK cell lines, the cells were seeded at 5000 cells in 0.1 mL per well in 96-well plates. The CCRF-CEM cells were seeded in RPMI-1640 media containing 2mM L-glutamine, 1.5 g/L sodium bicarbonate, supplemented with fetal bovine serum (FBS) 10% media, SKOV-3, MDA-MB-231, and LLCPK cells were seeded in MEME media with Earle’s salts and sodium bicarbonate, without L-glutamine, supplemented with fetal bovine serum (FBS) 10%, PC-3 cells were seeded in DMEM:F-12 containing 1:1 mixture with L-glutamine with HEPES, supplemented with fetal bovine serum (FBS) 10%, and DU-145 and HEK-293 cells were seeded in DMEM containing 4500 mg/L glucose, L-glutamine, and sodium bicarbonate, without sodium pyruvate, supplemented with FBS (10%), 24 h prior to the experiment. The compounds at a final concentration of 25 µM (higher concentration stock solution prepared in DMSO) were added to each well in triplicate and incubated for 24 and 72 h at 37 °C in a humidified atmosphere (95% air and 5% CO2). The cell viability was then determined by measuring the absorbance of the formazan product at 490 nm using a microplate reader using a SpectraMax M2 microplate spectrophotometer, Molecular Devices, San Jose, CA, USA. The percentage of cell survival was calculated as [(OD value of cells treated with the test mixture of compounds) − (OD value of culture medium)]/[(OD value of control cells) − (OD value of culture medium)] × 100%. IC50 values of compounds were calculated using non-linear regression analysis in GraphPad Prism (Boston, MA, USA).

T1 sequence (P12931 whole entry): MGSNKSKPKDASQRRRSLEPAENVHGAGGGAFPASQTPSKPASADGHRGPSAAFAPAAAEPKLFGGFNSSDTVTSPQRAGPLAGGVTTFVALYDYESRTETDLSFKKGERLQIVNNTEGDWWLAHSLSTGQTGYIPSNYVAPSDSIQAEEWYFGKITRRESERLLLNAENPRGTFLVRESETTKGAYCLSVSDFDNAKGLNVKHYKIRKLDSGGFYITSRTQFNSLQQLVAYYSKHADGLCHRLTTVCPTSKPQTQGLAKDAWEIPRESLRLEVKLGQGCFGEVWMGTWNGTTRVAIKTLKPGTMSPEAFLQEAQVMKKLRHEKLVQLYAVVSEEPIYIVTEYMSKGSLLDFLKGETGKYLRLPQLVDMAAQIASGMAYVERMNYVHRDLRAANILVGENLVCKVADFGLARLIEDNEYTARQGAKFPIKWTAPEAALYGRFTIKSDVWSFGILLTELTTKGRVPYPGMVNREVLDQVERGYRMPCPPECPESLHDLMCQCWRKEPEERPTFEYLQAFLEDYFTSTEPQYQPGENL

- remaining activity at 20 µM (c-Src): 113%
- remaining activity at 20 µM (PKCa): 103%
- remaining activity at 20 µM (mTOR/FRAP1): 112%
- remaining activity at 20 µM (PI3K (p110a/p65a)): 110%
- remaining activity at 20 µM (ABL1): 96.9%
- remaining activity at 20 µM (c-Kit): 95.3%
- remaining activity at 20 µM (CSK): 93%
- remaining activity at 20 µM (CDK2/cyclin A1): 105%
- IC50 ([1]; average of three independent tests in triplicate): 15.3 µM
Compound: Cc1noc(C)c1C(=O)OCc1coc2ccccc2c1=O [Compound 5a, (4-Oxo-4H-1-benzopyran-3-yl)methyl 3,5-dimethylisoxazole-4-carboxylate]
- inhibition at 25 µM ([1]; conjugates at 25 μM, 72 h): 73%
